In brackets after ≈: the same amount, converted by molar mass. Where a name gives a salt, the structure may show the parent alone. Read-outs that look alike come from different tables or passages of the source. Each block holds one compound with its values, some of them ahead of it.
What was measured:
[1] = prior art, cited from earlier work; for solubility in water and alcohols: water and alcohols such as methanol and ethanol, in words
[2] = test system: Acinetobacter anitratus RIMD 0102002; test: Minimum inhibitory concentration, Acinetobacter anitratus; type: cell-based; conditions: trypticase soy broth (BBL), heart infusion agar; for MIC: Acinetobacter calcoaceticus, RIMD0102002, A. anitratus
Method: Acinetobacter anitratus RIMD 0102002
(§1) The experiment was conducted according to the guide method which has been once revised and re-published by Japan Chemotherapy Association by using trypticase soy broth (BBL) as an incubation medium and heart infusion agar as a medium for determining susceptibility.

[3] = test system: Flavobacterium menigosepticum RIMD 0614002; test: Minimum inhibitory concentration, Flavobacterium menigosepticum; type: cell-based; conditions: trypticase soy broth (BBL), heart infusion agar; for Minimum inhibitory concentration: F. menigosepticum
Method: as §1, with “(1) Strains employed: Flavobacterium menigosepticum RIMD 0614002 (2) Method: The” for “The”

[4] = test system: Proteus vulgaris IFO 3045; test: Minimum inhibitory concentration, Proteus vulgaris; type: cell-based; conditions: trypticase soy broth (BBL), heart infusion agar; for MIC: Proteus vulgaris, IFO3045, P. vulgaris
Method: Proteus vulgaris IFO 3045
as §1

[5] = test system: Pseudomonas aeruginosa IID 1117; test: Minimum inhibitory concentration, Pseudomonas aeruginosa; type: cell-based; conditions: trypticase soy broth (BBL), heart infusion agar; for Minimum inhibitory concentration: Ps. aeruginosa
Method: Pseudomonas aeruginosa IID 1117
as §1

[6] = test system: Serratia marcescens IFO 12648; test: Minimum inhibitory concentration, Serratia marcescens; type: cell-based; conditions: S. marcescens, trypticase soy broth (BBL), heart infusion agar; for MIC: Serratia marcescens, IFO12648
Method: Serratia marcescens IFO 12648
as §1

[7] = test system: A. anitratus, F. menigosepticum, P. vulgaris, Ps. aeruginosa, S. marcescens; test: Antibiotic activity compared with chlorhexidine digluconate (five strains together); type: cell-based
Method: as §1

LD50 in mice = conditions: mouse, in vivo, route not stated
Solubility = type: physicochemical; conditions: in words

SMILES: [H]/N=C(\N/C(=N/[H])NCCCCCCNC(=N)NC(=N)Nc1ccc(Cl)cc1)Nc1ccc(Cl)cc1 [Chlorhexidine disulfate]
solubility in water and alcohols [1]: sparingly soluble
solubility in water [1]: 1 g per 10,000 ml

MIC [2]: 4000 mg/L (≈ 31 mM)
MIC ([3]; Flavobacterium, RIMD0614002, F. menigosepticum): 4000 mg/L (≈ 31 mM)
MIC [4]: 4000 mg/L (≈ 31 mM)
MIC ([5]; Pseudomonas aeruginosa, IID1117, Ps. aeruginosa): 4000 mg/L (≈ 31 mM)
MIC [6]: 4000 mg/L (≈ 31 mM)
SMILES: O=C1CC[C@@H](C(=O)O)N1 [Pyrrolidone-carboxylic acid, 2-Pyrrolidone-5-carboxylic acid]

SMILES: [H]/N=C(\N/C(=N/[H])NCCCCCCNC(=N)NC(=N)Nc1ccc(Cl)cc1)Nc1ccc(Cl)cc1 [Chlorhexidine diacetate]
solubility in water and alcohols [1]: sparingly soluble
solubility in water [1]: 1 g per 10,000 ml

SMILES: [H]/N=C(\N/C(=N/[H])NCCCCCCNC(=N)NC(=N)Nc1ccc(Cl)cc1)Nc1ccc(Cl)cc1 [Chlorhexidine digluconate, chlorhexidine digluconate]
MIC [2]: 62.5 mg/L
Minimum inhibitory concentration [3]: 125 mg/L
MIC [4]: 250 mg/L
Minimum inhibitory concentration [5]: 31.3 mg/L
MIC [6]: 125 mg/L
solubility in water and alcohols [1]: superior solubility in water and alcohols

SMILES: [H]/N=C(\N/C(=N/[H])NCCCCCCNC(=N)NC(=N)Nc1ccc(Cl)cc1)Nc1ccc(Cl)cc1 [Salt of this invention, chlorhexidine di-2-pyrrolidone-5-carboxylate]
Minimum inhibitory concentration ([2]; A. anitratus): 31.3 mg/L
Minimum inhibitory concentration [3]: 31.3 mg/L
Minimum inhibitory concentration ([4]; P. vulgaris): 125 mg/L
Minimum inhibitory concentration [5]: 15.6 mg/L
Minimum inhibitory concentration [6]: 125 mg/L
antibiotic activity [7]: more potent antibiotic activity than the known chlorhexidine digluconate
LD50 (LD50 in mice): ~2000 mg/kg
solubility in acetone, chloroform and ether (Solubility; acetone, chloroform and ether): insoluble in acetone, chloroform and ether
solubility in water and alcohols (Solubility; water and alcohols): soluble in water and alcohols

SMILES: [H]/N=C(\N/C(=N/[H])NCCCCCCNC(=N)NC(=N)Nc1ccc(Cl)cc1)Nc1ccc(Cl)cc1 [Chlorhexidine dihydrochloride]
solubility in water and alcohols [1]: sparingly soluble
solubility in water [1]: 1 g per 10,000 ml

Reference: US4393219A, “Salt of chlorhexidine” (Maruishi Pharmaceutical Co., Ltd., priority 1981, dated 1983)
